Reference: ChEMBL document CHEMBL1125926, “Anesthetic steroid mobility in model membrane preparations as examined by high-resolution 1H and 2H NMR spectroscopy” (1991)
The source made the active and inactive calls. No cut-off for these calls is given here.

Test: Compound was evaluated for anesthetic activity (lowest dose producing loss of righting reflex); IA=Inactive
Format: functional

Row | Compound | Activity
1 | CC(=O)C1=CCC2C3CC[C@H]4C[C@H](O)CCC4(C)C3C(=O)CC12C (some centres not stated) | inactive

Test: Compound was evaluated for anesthetic activity (lowest dose producing loss of righting reflex)
Format: functional

Row | Compound | Activity [mg/kg]
2 | CC(=O)C1CC[C@H]2[C@@H]3CC[C@@H]4C[C@H](O)CCC4(C)[C@H]3CCC12C (some centres not stated) | 3.1
3 | CC(=O)[C@H]1CC[C@H]2[C@@H]3CC[C@H]4C[C@H](O)CC[C@]4(C)[C@H]3CC[C@]12C [BREXANOLONE] | 3.1
4 | CC(=O)C1CC[C@H]2[C@@H]3CC[C@H]4C[C@@H](O)CCC4(C)[C@H]3CCC12C (some centres not stated) | 100
5 | CC(=O)[C@H]1CC[C@H]2[C@@H]3CC[C@@H]4C[C@H](O)CC[C@]4(C)[C@H]3C(=O)C[C@]12C [RENANOLONE] | 6.3
6 | CC(=O)C1CC[C@H]2[C@@H]3CC[C@@H]4C[C@@H](O)CCC4(C)[C@H]3CCC12C (some centres not stated) | 25
7 | CC(=O)[C@H]1CC[C@H]2[C@@H]3CC[C@H]4C[C@H](O)CC[C@]4(C)[C@H]3C(=O)C[C@]12C [ALFAXALONE] | 3.1
